These results are taken from patent US11274100B2, “EP300/CREBBP inhibitor” (Daiichi Sankyo Company, Limited, priority 2017, dated 2022).

One test deals with H3K27Ac. The experiment in a line: Intracellular H3K27Ac inhibitory activity in LK2 cells (Test Example 2). The class given is cell-based. Particulars: Homo sapiens, LK-2, cultured with compound for 3 hours, read-out: Test Example 2 H3K27Ac Inhibition (LK2) IC50. How it is done: [Test Example 2] Evaluation of Intracellular H3K27Ac Inhibitory Activity
LK2 cells derived from human squamous cell lung cancer were seeded in a 96 well plate at 40000 cells/100 μL/well, and were cultured overnight at 37° C. in 5% CO2. The LK2 cells were purchased from Human Science Research Resources Bank. […] The supernatant was discarded, 4% paraformaldehyde was added thereto at 100 μL/well, and the resultant was allowed to stand still at room temperature for 15 minutes. The 4% paraformaldehyde was discarded, and the resultant was washed with PBS-T. A quenching buffer (PBS-T containing 1% H2O2) was added thereto at of 100 μL/well, and the resultant was allowed to stand still at room temperature for 10 minutes. The resultant was washed with PBS-T, a blocking buffer (StartingBlocK T20 (TBS) Blocking Buffer (Thermo […], #37543)) was added thereto at 200 μL/well, and the resultant was allowed to stand still at room temperature for 1 hour. The supernatant was discarded, Acetyl-Histone H3 (Lys27) (D5E4) XP (registered trademark) Rabbit mAb (cell Signaling, #8173) diluted with a blocking buffer was added thereto at 50 μL/well, and the resultant was allowed to stand still at 4° C. overnight. The resultant was washed with PBS-T, Anti-Rabbit IgG-HRP (Cell Signaling, #7074S) diluted with a blocking buffer was added thereto at 50 μL/well, and the resultant was cultured at room temperature for 1 hour. The resultant was washed with PBS-T, SuperSignal (registered trademark) ELISA Pico Chemiluminescent Substrate (Thermo […], #37069) was added thereto at 50 μL/well, and a signal was measured using EnVision.

Another test addresses CREBBP (Homo sapiens, UniProt Q92793). The experiment in a line: Histone acetyltransferase inhibitory activity against CREBBP (Test Example 1). The conditions noted are these: 125 ng/mL CREBBP, 2 μM Acetyl-CoA, 100 nM Histone H4(1-25)-GSGSK (Biotin), 28° C. for 1 hour. The class given is biochemical. How it is done: (§1) [Test Example 1] Evaluation of Histone
(§2) Acetyltransferase Inhibitory Activity against EP300 and CREBBP
(§3) 10 μL each of reaction solutions each containing a different concentration of the compound of each of Examples 1 to 108b (50 mM Tris-HCl (pH8.0), 0.1 mM EDTA, 1 mM dithiothreitol, 0.01% Tween-20, 0.01% Bovine serum albumin, 330 nM trichostatin A, 2 μM Acetyl-CoA (Sigma-Aldrich, #A2056), 100 nM Histone H4(1-25)-GSGSK (Biotin) (Anaspec, #65242-1), 1% dimethyl sulfoxide, 10 to 0.0006 μM of each compound, 50 ng/mL EP300 or 125 ng/mL CREBBP) was added to respective wells of a 384-well plate, and cultured at 28° C. for 1 hour. Thereafter, 5 μL of 30 μM Lys-CoA (Daiichi Sankyo Co., Ltd.) dissolved in LANCE detection buffer (Perkin Elmer Co., Ltd., #CR97-100) was added to each well. Furthermore, 5 μL of LANCE detection buffer containing 2 nM Eu-anti pan-Ac (Perkin Elmer Co., Ltd., #TRF0412) and 50 nM Sta-Ulight (Perkin Elmer Co., Ltd., #TRF0102) was added to each well, and the resultant was cultured at room temperature overnight. EnVision (Perkin Elmer Co., Ltd., Model 2104-0020) was used to measure ULight signals. […] EP300 and CREBBP were produced and purified by Daiichi Sankyo RD Novare Co., Ltd.

The target of the next test is EP300 (Homo sapiens, UniProt Q09472). Nature of the test: Histone acetyltransferase inhibitory activity against EP300 (Test Example 1). In kind it is biochemical. Particulars: 50 ng/mL EP300, 2 μM Acetyl-CoA, 100 nM Histone H4(1-25)-GSGSK (Biotin), 28° C. for 1 hour. As for the experimental part:
as §1, §2, §3

SMILES strings stand for the structures.

Chain of EP300 (Q09472 whole entry): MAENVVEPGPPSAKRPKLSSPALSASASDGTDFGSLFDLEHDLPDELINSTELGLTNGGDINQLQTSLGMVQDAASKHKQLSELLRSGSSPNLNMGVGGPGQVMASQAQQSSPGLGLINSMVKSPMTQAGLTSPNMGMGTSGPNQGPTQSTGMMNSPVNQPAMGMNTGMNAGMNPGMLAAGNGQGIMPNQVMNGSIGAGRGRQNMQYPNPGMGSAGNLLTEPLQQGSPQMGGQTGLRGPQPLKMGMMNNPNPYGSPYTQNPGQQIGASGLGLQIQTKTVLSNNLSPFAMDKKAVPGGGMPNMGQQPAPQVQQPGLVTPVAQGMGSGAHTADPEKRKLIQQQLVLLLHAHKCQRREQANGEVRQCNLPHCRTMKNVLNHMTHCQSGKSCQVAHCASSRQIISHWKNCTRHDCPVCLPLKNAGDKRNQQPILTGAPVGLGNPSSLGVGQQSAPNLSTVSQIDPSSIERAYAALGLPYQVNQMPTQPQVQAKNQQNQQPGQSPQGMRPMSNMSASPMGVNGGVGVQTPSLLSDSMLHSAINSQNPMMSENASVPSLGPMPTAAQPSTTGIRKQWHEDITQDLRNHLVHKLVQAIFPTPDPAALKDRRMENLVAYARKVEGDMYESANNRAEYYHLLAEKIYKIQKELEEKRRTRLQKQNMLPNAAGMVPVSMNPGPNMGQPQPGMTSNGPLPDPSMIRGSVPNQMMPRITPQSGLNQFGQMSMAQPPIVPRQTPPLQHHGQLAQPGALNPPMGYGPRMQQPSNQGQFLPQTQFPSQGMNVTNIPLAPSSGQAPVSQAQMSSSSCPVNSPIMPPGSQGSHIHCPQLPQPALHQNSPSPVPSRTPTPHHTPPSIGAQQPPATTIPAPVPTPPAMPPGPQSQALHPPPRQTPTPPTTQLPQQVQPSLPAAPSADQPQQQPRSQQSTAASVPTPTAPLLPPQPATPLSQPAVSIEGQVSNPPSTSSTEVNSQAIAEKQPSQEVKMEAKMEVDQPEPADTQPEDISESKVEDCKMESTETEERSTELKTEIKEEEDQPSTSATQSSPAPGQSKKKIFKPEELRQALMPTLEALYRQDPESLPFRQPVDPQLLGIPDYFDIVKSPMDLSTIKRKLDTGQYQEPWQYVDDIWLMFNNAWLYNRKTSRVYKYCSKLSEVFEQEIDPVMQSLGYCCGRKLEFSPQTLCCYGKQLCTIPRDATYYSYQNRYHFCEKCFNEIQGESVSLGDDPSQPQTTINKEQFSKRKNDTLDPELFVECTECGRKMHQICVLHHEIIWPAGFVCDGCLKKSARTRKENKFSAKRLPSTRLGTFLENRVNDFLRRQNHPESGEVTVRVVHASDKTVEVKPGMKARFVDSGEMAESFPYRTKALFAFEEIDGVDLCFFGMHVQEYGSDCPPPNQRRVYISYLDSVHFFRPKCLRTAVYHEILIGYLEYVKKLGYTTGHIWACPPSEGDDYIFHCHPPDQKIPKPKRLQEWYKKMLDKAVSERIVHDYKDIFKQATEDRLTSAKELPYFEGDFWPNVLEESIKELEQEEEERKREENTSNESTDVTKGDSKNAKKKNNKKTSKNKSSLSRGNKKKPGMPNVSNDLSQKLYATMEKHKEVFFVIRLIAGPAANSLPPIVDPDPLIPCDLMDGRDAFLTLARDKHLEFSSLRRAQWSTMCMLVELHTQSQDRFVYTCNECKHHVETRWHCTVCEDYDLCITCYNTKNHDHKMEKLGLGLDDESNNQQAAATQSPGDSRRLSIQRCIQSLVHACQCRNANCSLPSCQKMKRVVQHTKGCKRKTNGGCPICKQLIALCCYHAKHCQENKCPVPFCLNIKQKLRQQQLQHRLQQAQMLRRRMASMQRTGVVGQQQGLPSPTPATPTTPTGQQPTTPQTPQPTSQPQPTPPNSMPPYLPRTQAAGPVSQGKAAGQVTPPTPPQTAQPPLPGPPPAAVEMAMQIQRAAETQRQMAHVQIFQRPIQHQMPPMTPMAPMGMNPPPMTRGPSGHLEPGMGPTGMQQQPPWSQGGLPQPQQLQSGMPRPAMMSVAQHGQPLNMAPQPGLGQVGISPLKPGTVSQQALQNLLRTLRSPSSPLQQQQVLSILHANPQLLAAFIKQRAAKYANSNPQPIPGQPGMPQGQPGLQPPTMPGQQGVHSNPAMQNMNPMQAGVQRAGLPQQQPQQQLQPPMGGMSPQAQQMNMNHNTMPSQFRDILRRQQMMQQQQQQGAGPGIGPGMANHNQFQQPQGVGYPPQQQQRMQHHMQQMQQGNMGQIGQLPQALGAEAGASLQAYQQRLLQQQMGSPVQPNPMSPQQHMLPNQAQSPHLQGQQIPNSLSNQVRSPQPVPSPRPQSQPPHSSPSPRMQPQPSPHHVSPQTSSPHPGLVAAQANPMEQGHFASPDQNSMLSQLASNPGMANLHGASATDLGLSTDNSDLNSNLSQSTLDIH
Chain of CREBBP (Q92793 whole entry): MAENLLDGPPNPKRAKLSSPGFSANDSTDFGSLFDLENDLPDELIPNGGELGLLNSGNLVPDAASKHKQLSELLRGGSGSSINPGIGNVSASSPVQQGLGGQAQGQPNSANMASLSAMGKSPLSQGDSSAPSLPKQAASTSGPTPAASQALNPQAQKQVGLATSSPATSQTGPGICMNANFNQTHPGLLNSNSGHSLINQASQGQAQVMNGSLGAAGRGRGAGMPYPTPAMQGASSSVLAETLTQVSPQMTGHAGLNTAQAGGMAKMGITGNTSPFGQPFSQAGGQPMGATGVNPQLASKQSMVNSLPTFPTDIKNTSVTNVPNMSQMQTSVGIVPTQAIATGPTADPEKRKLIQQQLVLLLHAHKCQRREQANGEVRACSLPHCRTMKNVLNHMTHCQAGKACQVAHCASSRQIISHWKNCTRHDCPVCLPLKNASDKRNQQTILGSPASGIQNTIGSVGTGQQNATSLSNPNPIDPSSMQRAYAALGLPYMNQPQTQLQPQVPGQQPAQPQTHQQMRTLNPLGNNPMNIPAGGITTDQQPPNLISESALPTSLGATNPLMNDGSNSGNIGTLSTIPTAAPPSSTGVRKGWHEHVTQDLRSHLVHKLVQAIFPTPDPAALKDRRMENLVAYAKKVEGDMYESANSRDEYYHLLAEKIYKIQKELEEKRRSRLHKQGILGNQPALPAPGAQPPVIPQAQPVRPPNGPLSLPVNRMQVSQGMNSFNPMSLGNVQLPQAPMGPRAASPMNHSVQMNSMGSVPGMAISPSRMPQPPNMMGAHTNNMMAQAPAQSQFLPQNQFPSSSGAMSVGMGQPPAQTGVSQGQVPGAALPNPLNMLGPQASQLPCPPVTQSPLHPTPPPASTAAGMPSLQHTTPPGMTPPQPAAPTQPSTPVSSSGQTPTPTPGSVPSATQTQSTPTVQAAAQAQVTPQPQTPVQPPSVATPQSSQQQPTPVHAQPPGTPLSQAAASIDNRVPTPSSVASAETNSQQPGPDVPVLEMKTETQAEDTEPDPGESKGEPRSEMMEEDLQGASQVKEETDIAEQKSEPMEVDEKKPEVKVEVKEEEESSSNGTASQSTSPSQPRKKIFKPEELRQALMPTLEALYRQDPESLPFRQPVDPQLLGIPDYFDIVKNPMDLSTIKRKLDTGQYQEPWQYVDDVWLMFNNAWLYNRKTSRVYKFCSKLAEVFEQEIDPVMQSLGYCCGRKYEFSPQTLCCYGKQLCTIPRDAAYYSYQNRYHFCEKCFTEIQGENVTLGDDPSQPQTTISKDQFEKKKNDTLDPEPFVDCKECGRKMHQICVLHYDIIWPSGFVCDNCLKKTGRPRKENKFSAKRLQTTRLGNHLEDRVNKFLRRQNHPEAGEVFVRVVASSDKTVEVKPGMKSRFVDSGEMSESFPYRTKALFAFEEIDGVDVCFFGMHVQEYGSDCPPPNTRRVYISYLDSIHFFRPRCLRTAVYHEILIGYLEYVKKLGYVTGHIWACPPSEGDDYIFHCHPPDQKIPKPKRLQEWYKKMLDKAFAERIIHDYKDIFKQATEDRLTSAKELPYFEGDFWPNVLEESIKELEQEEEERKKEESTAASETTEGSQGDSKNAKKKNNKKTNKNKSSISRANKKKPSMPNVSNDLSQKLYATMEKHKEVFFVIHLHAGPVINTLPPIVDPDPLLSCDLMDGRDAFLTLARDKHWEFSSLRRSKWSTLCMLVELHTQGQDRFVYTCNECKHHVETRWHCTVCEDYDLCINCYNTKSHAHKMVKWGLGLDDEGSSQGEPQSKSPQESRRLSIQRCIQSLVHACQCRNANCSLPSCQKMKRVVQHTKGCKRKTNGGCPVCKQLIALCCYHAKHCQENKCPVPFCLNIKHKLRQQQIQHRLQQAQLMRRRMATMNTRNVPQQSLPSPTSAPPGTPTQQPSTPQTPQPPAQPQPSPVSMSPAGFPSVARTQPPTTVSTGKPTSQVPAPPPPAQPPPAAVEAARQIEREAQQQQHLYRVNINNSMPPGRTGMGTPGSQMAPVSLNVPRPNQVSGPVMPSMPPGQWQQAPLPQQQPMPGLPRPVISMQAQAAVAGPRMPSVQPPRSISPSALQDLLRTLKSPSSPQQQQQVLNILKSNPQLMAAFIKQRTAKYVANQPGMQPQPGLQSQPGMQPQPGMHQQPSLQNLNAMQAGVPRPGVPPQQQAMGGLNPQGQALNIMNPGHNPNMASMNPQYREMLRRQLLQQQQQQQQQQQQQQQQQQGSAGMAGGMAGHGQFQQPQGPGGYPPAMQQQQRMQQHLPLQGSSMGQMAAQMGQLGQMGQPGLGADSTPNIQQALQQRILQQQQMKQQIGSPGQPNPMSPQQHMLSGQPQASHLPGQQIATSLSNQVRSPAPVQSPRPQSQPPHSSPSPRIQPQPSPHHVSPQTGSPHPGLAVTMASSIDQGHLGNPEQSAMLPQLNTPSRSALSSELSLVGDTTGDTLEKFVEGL

A word on the IC50: it is the midpoint of a concentration-inhibition curve. For `COc1ccc(C2(C(=O)N(C)CC(=O)Nc3cccc4[nH]ncc34)CCCCC2)cc1` [Example 2, N-[2-(1H-Indazol-4-ylamino)-2-oxoethyl]-1-(4-methoxyphenyl)-N-methylcyclohexanecarboxamide], the values for the IC50 with H3K27Ac, against CREBBP and against EP300 were 1010 nM, 128 nM and 193 nM, respectively. Regarding `COc1ccc(C2(C(=O)N3CCCC3C(=O)Nc3cccc4c3cnn4C)CCCCC2)cc1` (stereo not drawn) [Example 3, 1-{[1-(4-Methoxyphenyl)cyclohexyl]carbonyl}-N-(1-methyl-1H-indazol-4-yl)prolinamide], in the test on H3K27Ac, the IC50 is 10600 nM. Same read-out and setting: with `O=C(O)c1ccc(C2(C(=O)N3CCC[C@@H]3C(=O)Nc3cccc4[nH]ncc34)CCCC2)cc1` [Example 4, 4-(1-{[(2R)-2-(1H-Indazol-4-ylcarbamoyl)pyrrolidin-1-yl]carbonyl}cyclopentyl)benzoic acid] the figure was 11700 nM. As to `COc1ccc(C2(C(=O)N3C[C@H](O)C[C@@H]3C(=O)Nc3cccc4[nH]ncc34)CCCC2)cc1` [Example 5, (4R)-4-Hydroxy-N-1H-indazol-4-yl-1-{[1-(4-methoxyphenyl)cyclopentyl]carbonyl}-D-prolinamide], the IC50 in the test on H3K27Ac came to 1030 nM; on CREBBP, 334 nM; against EP300 it was 259 nM. Take `COc1ccc(C2(C(=O)N3C[C@H](OC)C[C@@H]3C(=O)Nc3cccc4[nH]ncc34)CCCC2)cc1` [Example 6, (4R)—N-1H-Indazol-4-yl-4-methoxy-1-{[1-(4-methoxyphenyl)cyclopentyl]carbonyl}-D-prolinamide]: the IC50 in the test with H3K27Ac turned out to be 9640 nM.

Regarding `COc1ccc(C2(C(=O)N3C[C@@H](F)C[C@@H]3C(=O)Nc3cccc4[nH]ncc34)CCCC2)cc1` [Example 7, (4S)-4-Fluoro-N-1H-indazol-4-yl-1-{[1-(4-methoxyphenyl)cyclopentyl]carbonyl}-D-prolinamide], in the test with H3K27Ac, the IC50 is 8750 nM. Regarding `COc1ccc(C2(C(=O)N3CCC[C@@H]3C(=O)Nc3ccccc3)CCCC2)cc1` [Example 8, 1-{[1-(4-Methoxyphenyl)cyclopentyl]carbonyl}-N-phenyl-D-prolinamide], the IC50 with H3K27Ac came to 6530 nM.

As to `COc1ccc(C2(C(=O)N3CCC[C@@H]3C(=O)Nc3cccc(C)c3)CCCC2)cc1` [Example 9, 1-{[1-(4-Methoxyphenyl)cyclopentyl]carbonyl}-N-(3-methylphenyl)-D-prolinamide], in the test on H3K27Ac, the IC50 was determined as 8450 nM. Same read-out and setting: the result for `COc1ccc(C2(C(=O)N3CCC[C@@H]3C(=O)Nc3ccccc3OC)CCCC2)cc1` [Example 10, N-(2-Methoxyphenyl)-1-{[1-(4-methoxyphenyl)cyclopentyl]carbonyl}-D-prolinamide] reads 6110 nM; that for `COc1ccc(C2(C(=O)N3CCC[C@@H]3C(=O)Nc3ccncc3)CCCC2)cc1` [Example 11, 1-{[1-(4-Methoxyphenyl)cyclopentyl]carbonyl}-N-pyridin-4-yl-D-prolinamide], 8060 nM. As for `COc1ccc(C2(C(=O)N3CCC[C@@H]3C(=O)Nc3ccc(OCc4ccccc4)cc3)CCCC2)cc1` [Example 12, N-[4-(Benzyloxy)phenyl]-1-{[1-(4-methoxyphenyl)cyclopentyl]carbonyl}-D-prolinamide], the IC50 with H3K27Ac is 2580 nM. Turning to `COc1ccc(C2(C(=O)N3CCC[C@@H]3C(=O)Nc3cccc4ccccc34)CCCC2)cc1` [Example 13, 1-{[1-(4-Methoxyphenyl)cyclopentyl]carbonyl}-N-naphthalen-1-yl-D-prolinamide], the IC50 in the test on H3K27Ac amounted to 3990 nM. Turning to `COc1ccc(C2(C(=O)N3CCC[C@@H]3C(=O)Nc3cccc4cccnc34)CCCC2)cc1` [Example 14, 1-{[1-(4-Methoxyphenyl)cyclopentyl]carbonyl}-N-quinolin-8-yl-D-prolinamide], the IC50 in the test on H3K27Ac was 6670 nM. As to `COc1ccc(C2(C(=O)N3CCC[C@@H]3C(=O)Nc3cccc(N)n3)CCCC2)cc1` [Example 15, N-(6-Aminopyridin-2-yl)-1-{[1-(4-methoxyphenyl)cyclopentyl]carbonyl}-D-prolinamide], the IC50 with H3K27Ac came to 908 nM; on CREBBP it was 353 nM; against EP300 it was 218 nM. On to `COc1ccc(C2(C(=O)N3CCC[C@@H]3C(=O)Nc3cccc4[nH]ccc34)CCCC2)cc1` [Example 16, N-1H-Indol-4-yl-1-{[1-(4-methoxyphenyl)cyclopentyl]carbonyl}-D-prolinamide], for which the IC50 in the test on H3K27Ac stood at 304 nM; on CREBBP it was 95 nM; against EP300, 61 nM. On the same counts, the results for `COc1ccc(C2(C(=O)N3CCC[C@@H]3C(=O)Nc3ccc4[nH]ccc4c3)CCCC2)cc1` [Example 17, N-1H-Indol-5-yl-1-{[1-(4-methoxyphenyl)cyclopentyl]carbonyl}-D-prolinamide] are 709 nM, 237 nM and 213 nM.

`COc1ccc(C2(C(=O)N3CCC[C@@H]3C(=O)Nc3ccc4c(c3)CCC(=O)N4)CCCC2)cc1` [Example 18, l-{[1-(4-Methoxyphenyl)cyclopentyl]carbonyl}-N-(2-oxo-1,2,3,4-tetrahydroquinolin-6-yl)-D-prolinamide]: in the test with H3K27Ac, the IC50 is 3340 nM.

On to `COc1ccc(C2(C(=O)N3CCC[C@@H]3C(=O)Nc3ncccn3)CCCC2)cc1` [Example 20, 1-{[1-(4-Methoxyphenyl)cyclopentyl]carbonyl}-N-pyrimidin-2-yl-D-prolinamide], for which the IC50 in the test on H3K27Ac was found to be 7720 nM. As for `COc1ccc(C2(C(=O)N3[C@H](C)CC[C@@H]3C(=O)Nc3cccc4[nH]ncc34)CCCC2)cc1` [Example 25, (5R)—N-1H-Indazol-4-yl-1-{[1-(4-methoxyphenyl)cyclopentyl]carbonyl}-5-methyl-D-prolinamide], the IC50 in the test with H3K27Ac stood at 5320 nM. Take `COc1ccc(C2(C(=O)N3CCCCC[C@@H]3C(=O)Nc3ccccc3C#N)CCCC2)cc1` [Example 27, (2R)—N-(2-Cyanophenyl)-1-{[1-(4-methoxyphenyl)cyclopentyl]carbonyl}azepan-2-carboxamide]: the half-inhibitory concentration (IC50) in the test with H3K27Ac stood at 2530 nM.

As for `COc1ccc(C2(C(=O)N3C[S+]([O-])C[C@@H]3C(=O)Nc3cccc4[nH]ncc34)CCCC2)cc1` (stereo partly drawn) [Example 28b, (4S)—N-(1H-Indazol-4-yl)-3-{[1-(4-methoxyphenyl)cyclopentyl]carbonyl}-1,3-thiazolidin-4-carboxamide 1-oxide], the IC50 with H3K27Ac turned out to be 6880 nM. On the same count and under the same terms, the result for `C#C[C@@]1(O)C[C@H](C(=O)Nc2ccccc2Cl)N(C(=O)C2(c3ccc(OC)cc3)CCCC2)C1` [Example 32, (4S)—N-(2-Chlorophenyl)-4-ethynyl-4-hydroxy-1-{[1-(4-methoxyphenyl)cyclopentyl]carbonyl}-D-prolinamide] reads 1650 nM; that for `COc1ccc(C2(C(=O)N3C[C@H](F)C[C@@H]3C(=O)Nc3cccc4[nH]ncc34)CCCOC2)cc1` (stereo partly drawn) [Example 42, (4R)-4-Fluoro-N-1H-indazol-4-yl-1-{[3-(4-methoxyphenyl)tetrahydro-2H-pyran-3-yl]carbonyl}-D-prolinamide], 4010 nM. With `COc1ccc(C2(C(=O)N3C[C@H](F)C[C@@H]3C(=O)Nc3cccc4[nH]ncc34)CCCCO2)cc1` (stereo partly drawn) [Example 43, (4R)-4-Fluoro-N-1H-indazol-4-yl-1-{[2-(4-methoxyphenyl)tetrahydro-2H-pyran-2-yl]carbonyl}-D-prolinamide], in the test on H3K27Ac, the IC50 was 6450 nM. For the compound `COc1ccc(C2(C(=O)N3CCC[C@@H]3C(=O)Nc3cccc4[nH]ncc34)CCC(F)(F)CC2)cc1` [Example 55], the IC50 in the test on H3K27Ac was found to be 2020 nM. As to `COc1ccc(C2(C(=O)N3CCC[C@@H]3C(=O)Nc3cccc4[nH]cnc34)CCCC2)cc1` [Example 59], in the test on H3K27Ac, the IC50 worked out at 2500 nM.
